From patent publication US9464064B2, “HCV helicase inhibitors and methods of use thereof” (University of Kansas, priority 2011, dated 2016)

Biological target: T1, HCV NS3 helicase NS3h_1b(con1) (Hepatitis C virus genotype 1b, UniProt Q9WMX2)
T1 construct: truncated C-terminally His-tagged NS3 proteins lacking the N-terminal protease, called NS3h; His-tag (C); made in house
Assay: MBHA screen of NCI mechanistic set library at 20 μM (percent inhibition, compound interference)
Assay type: biochemical
Details: compounds at 20 μM; for Inh. (%) (Inhibition): calculated from Equation 1
How it was run: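 Molecular beacon-based DNA unwinding assay; compounds screened at 20 μM in triplicate, with DMSO-only negative and 500 nM dT20 positive controls. Fluorescence (ex 643/em 670 nm) was read before and 30 min after adding ATP to 1 mM. Percent inhibition came from the change relative to DMSO controls; interference from pre-ATP fluorescence versus DMSO controls.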

[1] = MBHA with DNA substrate, assay interference calculated with Equation 2
[2] = assay interference calculated with Equation 2 (fluorescence vs DMSO-only controls before ATP)

T1 sequence (Q9WMX2 1192-1657): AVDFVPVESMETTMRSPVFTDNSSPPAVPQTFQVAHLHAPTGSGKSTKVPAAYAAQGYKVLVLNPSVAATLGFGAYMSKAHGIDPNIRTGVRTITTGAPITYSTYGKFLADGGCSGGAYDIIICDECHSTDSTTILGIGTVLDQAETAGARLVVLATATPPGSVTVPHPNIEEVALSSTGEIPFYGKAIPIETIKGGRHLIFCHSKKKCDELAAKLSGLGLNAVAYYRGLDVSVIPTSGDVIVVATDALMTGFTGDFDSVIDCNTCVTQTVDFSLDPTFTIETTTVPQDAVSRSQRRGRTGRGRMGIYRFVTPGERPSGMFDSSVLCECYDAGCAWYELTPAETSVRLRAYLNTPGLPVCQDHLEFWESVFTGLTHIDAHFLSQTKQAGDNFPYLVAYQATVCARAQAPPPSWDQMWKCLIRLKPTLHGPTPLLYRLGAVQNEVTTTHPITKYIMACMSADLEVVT

SMILES	Int.* (Ratio) (Interference) [1]	Inh. (%) (Inhibition) (MBHA with DNA substrate)	Inh. (%) (Inhibition) (MBHA with a DNA substrate)	Int.* (Ratio) (Interference) [2]
CC1(C)CC(Nc2ccc(Nc3ccccc3)cc2)CC(C)(C)N1 [Compound 632536]	0.84	20.7		
C=CC(=O)N1C/C(=C\c2ccccc2)C(=O)/C(=C/c2ccccc2)C1 [Compound 632841]	0.81	15.6		
Cc1c(Cl)cccc1NC(=O)CC1Sc2ccccc2NC1=O (stereo not shown) [Compound 634396]	0.99	−17.6		
COC(=O)C1=CC(=O)C(C(=O)Nc2ccc(OC)cc2)C(c2ccccc2)O1 (stereo not shown) [Compound 634473]	1.01	4.2		
O=C1C=CC(CC(=O)c2ccc3ccccc3c2)O1 (stereo not shown) [Compound 634650]			−4.4	1.12
[O-][S+]1c2ccccc2N=C(c2cccc3ccccc23)CC1c1cccc2ccccc12 (stereo not shown) [Compound 634926]	0.92	−14.5		
CC1=C(C(=O)NCc2ccccc2)C(c2ccccc2O)C(C(=O)NCc2ccccc2)=C(C)N1 [Compound 634928]			6.8	0.97
C/C(NNC(=O)c1ccccc1O)=C1\C=Nc2ccccc2S1 [Compound 635121]	0.92	14.5		
Cc1cc(Cl)cc2c1NC(=O)C2(O)C(C(=O)c1ccccc1)c1ccccc1 (stereo not shown) [Compound 635435]			6.9	0.96
Cc1c(C(=O)C/C(=N\O)C(=O)Nc2cc(Cl)c(Cl)cc2Cl)[n+](=O)c2ccccc2n1[O-] [Compound 635544]			−21.9	0.82
O=[N+]([O-])c1cc(-c2nc(=S)[nH][nH]2)ccc1O [Compound 635563]			−6.8	0.92
COC(=O)C(=O)C(C(=O)Nc1cccc(C)c1C)C1Sc2ccccc2NC1=O (stereo not shown) [Compound 635833]	0.93	−7.3		
CC1=NC(C(C)C)C(=O)O1 (stereo not shown) [Compound 635968]			9.0	0.97
Cc1ccccc1NC(=O)C(=O)C(C#N)c1ccccc1C (stereo not shown) [Compound 636132]	0.90	4.4		
NC(=Nc1nc(-c2ccccn2)cc2ccccc12)c1ccccn1 [Compound 637578]			7.9	0.97
CCOc1ccccc1NC(=O)CC1Sc2ccccc2NC1=O (stereo not shown) [Compound 637680]	0.91	21.2		
O=C1C=C(NCCc2ccccc2)c2ccccc2C1=O [Compound 637731]			−5.3	1.07
N#CCCN(c1ccc(C=O)cc1)S(=O)(=O)c1ccccc1 [Compound 637914]	1.01	−11.0		
O=S(=O)(O)c1cc(N=Nc2cc(S(=O)(=O)O)c3cccnc3c2O)ccc1/C=C/c1ccc(N=Nc2cc(S(=O)(=O)O)c3cccnc3c2O)cc1S(=O)(=O)O [Compound 638352]	0.89	56.2		
COc1ccc2ccccc2c1C1OC(=O)c2ccccc21 (stereo not shown) [Compound 638504]	0.90	−2.7		
Cl.O=C1/C(=C\c2ccc(Cl)c(Cl)c2)CN(C(=O)CCN2CCOCC2)C/C1=C\c1ccc(Cl)c(Cl)c1 [Compound 638646]			−3.1	0.76
CCOC(=O)Nc1nc2ccc(Cn3cccc3)cc2[nH]1 [Compound 639754]	1.14	−18.3		
Nc1ccccc1C(=O)NC(=O)Nc1ccc(Oc2ncc(Br)cn2)c(Cl)c1 [Compound 639828]	1.05	23.0		

Now from value to compound:

Int.* (Ratio) (Interference) [1]	Inh. (%) (Inhibition) (MBHA with DNA substrate)	Inh. (%) (Inhibition) (MBHA with a DNA substrate)	Int.* (Ratio) (Interference) [2]	SMILES
1.04	−2.7			COc1ccc(Cc2nc3ccccc3s2)cc1OC [Compound 632233]
0.87	20.4			Cc1ccc(/C=C2\CNC/C(=C\c3ccc(C)cc3)C2=O)cc1.Cl [Compound 632839]
0.89	23.2			O=[N+]([O-])c1ccccc1S(=O)(=O)c1ccccc1[N+](=O)[O-] [Compound 633001]
		9.9	0.87	O=C(NC(=O)c1c(Cl)nc2sccn12)Nc1ccc(Cl)cc1 [Compound 633209]
1.17	2.7			O=C1C(c2cnc3ccccc3n2)=C(O)c2ccccc21 [Compound 634224]
1.06	2.3			CCOC(=O)CCn1ncc(Cl)c(Cl)c1=O [Compound 634471]
		−31.9	0.93	CCc1cccc(CC)c1NC(=O)C(C#N)C1=C(Cl)C(=O)c2ccccc2C1=O (stereo not shown) [Compound 634503]
0.90	−14.8			Cn1c(=O)c2nc3sc4c(n3c2n(C)c1=O)C(=O)c1ccccc1C4=O [Compound 634568]
0.85	15.7			CC(=O)/C(=C\c1cccc([N+](=O)[O-])c1)C(=O)Nc1ccccc1C [Compound 634658]
0.99	−18.2			O=S1(=O)OCCOS(=O)(=O)C1Cc1ccccc1 [Compound 634863]
1.04	4.6			COC(=O)c1[nH]c(=S)[nH]c(=O)c1-c1ccc(Cl)cc1 [Compound 635140]
		−6.8	0.96	O=C(c1ccccc1)C1OC12C(=O)Nc1c(Cl)cc(Cl)cc12 (stereo not shown) [Compound 635306]
0.93	−18.1			O=C(c1ccccc1)C(c1ccccc1)C1(O)C(=O)Nc2c(Cl)cc(Cl)cc21 (stereo not shown) [Compound 635312]
1.01	5.1			Cc1c(Cl)ccc2c1NC(=O)C2(O)C(C(=O)c1ccccc1)c1ccccc1 (stereo not shown) [Compound 635321]
1.11	5.9			O=C(CC1(O)C(=O)Nc2c(Cl)cc(Cl)cc21)c1ccc([N+](=O)[O-])cc1 (stereo not shown) [Compound 635326]
0.99	2.5			O=C(CC1(O)C(=O)Nc2c(Cl)cc(Cl)cc21)c1cccc2ccccc12 (stereo not shown) [Compound 635328]
1.05	25.5			CN1CCN(CCSC2Cc3cc(Cl)ccc3Sc3ccccc32)CC1 (stereo not shown) [Compound 635366]

Int.* (Ratio) (Interference) [1]	Inh. (%) (Inhibition) (MBHA with DNA substrate)	Inh. (%) (Inhibition) (MBHA with a DNA substrate)	Int.* (Ratio) (Interference) [2]	SMILES
0.89	15.6			O=C(CC1(O)C(=O)Nc2c(Cl)ccc(Cl)c21)c1ccc(Cl)cc1Cl (stereo not shown) [Compound 635436]
0.92	0.1			O=C(CC1(O)C(=O)Nc2c(Cl)ccc(Cl)c21)c1ccc(Cl)cc1 (stereo not shown) [Compound 635437]
		−23.8	1.02	O=C(CC1(O)C(=O)Nc2c(Cl)cc(Cl)cc21)c1cccc([N+](=O)[O-])c1 (stereo not shown) [Compound 635438]
0.92	16.7			CC(=O)/C(C)=N/NC(=O)c1ccccc1O [Compound 635441]
0.93	0.8			C/C(=N\NC(=S)N(C)C)c1ccccn1.[Cu][Br] [Compound 635448]
0.91	−12.7			Cc1c(C(=O)C/C(=N/NC(=O)CC#N)C(N)=O)[n+](=O)c2ccccc2n1[O-] [Compound 635542]
0.91	13.5			Cc1ccccc1OCC(COC(=O)Nc1ccccc1)OC(=O)Nc1ccccc1 (stereo not shown) [Compound 635824]
0.97	−2.4			CC(C)(C)c1ccc(OC2CCO2)cc1 (stereo not shown) [Compound 635975]
1.01	−8.2			CC1CCCC(C(=O)/C(=C/c2cccc(Cl)c2)C(=O)C(=O)O)C1 (stereo not shown) [Compound 636084]
		8.8	0.91	O=C(/C=C/c1c(O)ccc2ccccc12)c1cccc(O)c1 [Compound 636786]
		−30.3	1.07	COc1ccc(C2=Nc3ccccc3SC(C)C2)cc1 (stereo not shown) [Compound 636817]
		−3.8	0.97	O=C1C=C(Nc2cccnc2)c2ccccc2C1=O [Compound 637729]
0.80	−17.2			CC(=O)SC(SC(C)=O)SC(C)=O [Compound 637833]
0.97	1.1			N#CCCN(CCC#N)c1ccc(/C=C2/N=C(c3cc([N+](=O)[O-])ccc3Cl)OC2=O)cc1 [Compound 637916]
0.77	37.7			CCN(CC)CCNc1ccc2nc(C)n3c4ccc(OC)cc4c(=O)c1c23.Cl [Compound 637993]
		−20.4	0.86	O=C1/C(=C\c2ccccc2)CN(C(=O)/C=C/c2ccccc2)C/C1=C\c1ccccc1 [Compound 638634]
